These results are taken from article PMC8297771 (PLoS Pathogens, 2021).

Data set [1] deals with HIV-1 GFP vector produced from treated 293T cells, transduced into Jurkat cells. As to the kind of experiment: HIV-1 inhibition in producing cells (late stage). Conditions: 60 nM in 293T producing cells; GFP by FACS in Jurkat cells. Type of data set: cell-based. The method, then:
To test for STP0404’s inhibitory effects during the late stage of HIV-1 life cycle such as the maturation step, we employed the “producing cells” setup. In T75 tissue culture flasks, 293T cells were pre-treated with and without STP0404 (0 and 60 nM) for 2 hrs prior to transfection with pD3-HIV (13 μg) and pVSV-g (6 μg), using 0.3 mg/ml polyethylenimine. After 24 hrs incubation at 37°C, the supernatant was removed and replaced with fresh media with and without STP0404 (0 and 60 nM). 48 hrs later, D3-HIV vector from each treatment group was concentrated from the collected supernatant via ultracentrifugation (22,000 rpm for 2 hrs). Following p24 quantification, using 96-well plates, similar amount of respective D3-HIV vector was used to transduce Jurkat cells in triplicates for 48 hrs. The cells were harvested and fixed with 3.7% formaldehyde before being analyzed for GFP expression using FACS (Miltenyi Biotec, VYB). Separately, the “infecting cells” setup was used to investigate the inhibitory effects of STP0404 against the early stages of HIV-1 life cycle such as the integration and transcription steps. […] All data were analyzed using GraphPad Prism (Version 9). Unpaired t tests were performed to determine the significance of the readings in respective experimental set up relative to the untreated controls. […]
Background: Flow cytometry measures light scatter and fluorescence of single cells or particles in a stream.

The target of data set [2] is T1, IN-RNA binding (His6 tagged IN, HIV-1 TAR RNA) (Human immunodeficiency virus type 1 group M subtype B, UniProt P12497).
T1 construct: incubated with 100 nM His6 tagged IN
In words: Alpha Screen inhibition assay for IN binding to RNA. Type of data set: biochemical. The method, then:
Primary antiviral activity of ALLINIs was observed during virion maturation, where they inhibit IN-RNA interactions, we examined the ability of STP0404 to inhibit recombinant IN binding to synthetic TAR RNA using Alpha screen based assay. Briefly, different concentrations of STP0404 were incubated with 100 nM His6 tagged IN in buffer containing 100 mM NaCl, 1 mM MgCl2, 1 mM DTT, 1mg/mL BSA, 25 mM Tris, pH 7.4 at 4°C for 2 hrs. This mixture was then added to the nickel acceptor beads while biotinylated-TAR RNA was added to the streptavidin donor beads. After 2-hrs incubation at 4°C, the RNA mixture was added to the IN-drug mixture and the reading was taken after 1 hr incubation at 4°C by PerkinElmer Life Sciences Enspire multimode plate reader. The IC50 values were calculated by OriginLab software.

Data set [3] is described as follows: Safety pharmacology: effects on the respiratory system in rats. Type of data set: in vivo. Conditions: single oral 100, 300 and 600 mg/kg. The method, then:
(§1) Effects on the Respiratory System in Rats (Study no. YL18404). Four groups of eight male rats were given a single oral administration of STP0404 at doses of 100, 300 and 600 mg/kg. STP0404 was administered as a suspension in 0.5% MC in a volume of 10 mL/kg. […] Measurements were conducted at pre-dosing and 0.5, 1, 3, 6 12 and 24 hrs post-dosing, and respiratory rate, tidal volume and minute volume were investigated (INA Research, Japan). Effects on the Central Nervous System in Rats (Study no. YL18405). Four groups of six male rats were given a single oral administration of STP0404 at doses of 0 (vehicle), 100, 300 and 600 mg/kg. The test article was administered as a suspension in 0.5% MC in a volume of 10 mL/kg. […] Blinded observations were conducted pre-dosing and 0.5, 1, 3, 6, 12 and 24 hrs post-dosing on rats body temperature, pupil size, landing foot-splay and grip strength in functional observational battery. Effects on the Cardiovascular System in Dogs (Study no. YL18406). STP0404 at dose levels of 30, 60 and 90 mg/kg were administered orally (by capsules) to four male Beagle dogs in a design with 7-day intervals between doses. Heart rate, blood pressure (systolic, diastolic and mean) and electrocardiographic (ECG) parameters (PR, QT and QTc intervals and QRS duration) were evaluated at pre-dosing and 0.5, 1, 2, 4, 8 and 24 hrs post-dosing. […]

Data set [4] is described as follows: Four-week oral dose toxicology study in dogs (GLP). The following applies: for NOAEL at 4 weeks: both sexes, beagle. Type of data set: in vivo, beagle dogs. The method, then: STP0404 was administered orally to 10 or 15 SD rats/sex/group at dose levels of 100, 300 and 600 mg/kg/day for 4 weeks to evaluate its potential toxicity. The reversibility of any effects was also assessed following a 2-week untreated recovery period. Control animals (15 animals/sex) received the vehicle, 0.5 w/v% methylcellulose solution, in a similar manner for comparison. In addition, plasma STP0404 concentrations were determined using TK satellite animals (3 animals/sex/group) to evaluate systemic exposure of the animals to the test article. (Study no. YL18402). STP0404 was administered orally as a capsule to 4 or 6 dogs/sex/group at dose levels of 30, 60 and 90 mg/kg/day for 4 weeks to evaluate its potential toxicity. Control animals (6 animals/sex) received empty gelatin capsules in a similar manner for comparison. The reversibility of any effects was also assessed following a 2-week untreated recovery period (2 animals/sex/group for the control and 90 mg/kg/day groups). In addition, plasma STP0404 concentrations were determined using all tested animals (including control group) to evaluate systemic exposure of the animals to the test article (Study no. YL18403). The test was performed according to the Standard Operating Procedures (SOP) the Good Laboratory Practice (GLP) system of the INA Research.

The nature of data set [5]: Safety pharmacology: effects on the cardiovascular system in dogs. Type of data set: in vivo. The following applies: oral 30, 60 and 90 mg/kg. The method, then: as §1

As a reminder, the IC50 is the midpoint of a concentration-inhibition curve. Usually NOAEL stands for the highest dose or exposure tested at which no adverse effect was seen.

As for `Cc1nc2c(c(C)c(C)n2Cc2cnn(C)c2)c(-c2ccc(Cl)cc2)c1[C@H](OC(C)(C)C)C(=O)O` [STP0404], the “transduction efficiency, producing cells” value in data set [1] is recorded as “significantly reduced transduction efficiency”. The IC50 in data set [2] worked out at 20 ± 3 nM. Moreover, the “safety pharmacology concerns, respiratory system” value in data set [3] is “did not induce any safety pharmacology concerns”. Besides, the “single dose well tolerated up to” value in data set [4] (beagle dogs, oral) is “up to 500 mg/kg”. The no-observed-adverse-effect level (NOAEL) at 4 weeks in data set [4] (dog, in vivo, dogs, 4-week once daily oral dose) is 90 mg/kg; in data set [4] (dog, in vivo, male and female dogs, four-week oral) it was 90 mg/kg/day. Moreover, the “histopathology lesions (in words)” value in data set [4] (dog, in vivo) is reported as “lesions were not observed in any organ”. Further, in data set [4] (dogs, 30 mg/kg, 60 mg/kg and 90 mg/kg, four-week oral), the “abnormal changes (in words)” value is given as “no abnormal changes were noted at any dose level”. Moreover, the “highest non-severely toxic dose (HNSTD)” value in data set [4] (four-week dog toxicology study, ICH guidance S9) came out at 90 mg/kg/day. For the same compound, the “safety pharmacology concerns, cardiovascular system” value in data set [5] is on record as “did not induce any safety pharmacology concerns”.
